pEC50: −log10 of the molar value. Entries after “also recorded” stand apart in the source; their conditions may differ.
Legend:
p300 = p300 (Homo sapiens, UniProt Q09472); assay: In vitro acetylation assay (p300, histone 3 Lys 18 / Lys 27, western blot); type: biochemical; details: compound in DMSO; for pEC50: read-out: H3-Lys 18 EC50; for H3-Lys 27 EC50 / H3-Lys 27 IC50: Lys 27 of histone 3
Experimental: The aim of the in vitro acetylation assay is to measure the enzymatic activity of the various compounds towards p300. Results are provided in FIG. 3A to FIG. 7B for average values of lysine residue acetylation (continuous line) and their standard error range measured in the absence of compound and DMSO, wherein “n” represents the number of replicates.
First, the drug is prepared:
Second, dilute p300 in AM1 buffer to a concentration of 40 ng/μL (final concentration in the reaction 20 ng/μL). This is accomplished by diluting 1 μL of p300 (at 0.4 μg/μL) into […] of AM1 buffer.
Third, prepare the Master Mix. Prepare the Master Mix in low protein binding tubes (ThermoFisher Cat. No. 90410), 20 μL system.
Incubate reactions at 30° C. for 30 minutes.
Incubate reactions at 30° C. for 1 hour.
Fourth, perform the western blot assay. • Add 6.7 μL of Laemmli Sample Buffer 4× (Bio-Rad Laboratories Cat. No. 161-0737) for each reaction and boil samples at 95° C. for 5 min. • Charge 10 μL for each sample in 2 Tris Glycine 4-15% gels (Bio-Rad Laboratories Cat. No. 456-1086). Running Buffer: Tris-Glycine 1× (pour in the cell up to the writing “2 gels”). • Run at 90 V for 1 hour (until the gel front reaches the green line of cell). • Semi-dry transfer with Trans-Blot® Turbo™ Blotting System from Bio-Rad Laboratories (Trans-Blot® Turbo™ RTA midi PVDF transfer kit Cat. No1704275). • Activate PVDF membrane in methanol for 5 minutes and then wet in Trans-Blot® Turbo™ transfer buffer. • Wet stacks in transfer buffer. • Transfer at 23 V 1.3 A for 7 minutes. • Blocking buffer: 5% Non-Fat milk in TBST (tween 0.1%) 1 hour at room temperature. • Cut the membranes to get Ac-His 3 at 17 kDa and p300 at 300 kDa. • Incubate with primary antibodies overnight at 4° C. • The day after, make 3 washes in TBST (Tween 0.1%) of 10 minutes. • Incubate with secondary antibody at room temperature for 1 hour. • Make 3 washes in TBST (Tween 0.1%) of 5 minutes. • Incubate membranes with ECL (SuperSignal West Dura Extended Duration Substrate from ThermoFisher) for 5 minutes at room temperature. • Acquire the image with ChemiDoc Odyssey Fc 2 minutes.
To detect total H3 (loading control), strip the membranes with Restore™ Western Blot Stripping Buffer according to the manufacturer protocol.
Various compounds were tested for enzymatic activity with respect to Lys 18 and Lys 27 of histone 3. EC50 is indicated for activators and IC50 for inhibitors respectively.

[1] = Stability in human liver microsomes; type: in vitro ADME; details: both sexes
Experimental: Compounds were tested for stability in human liver microsomes.
Experimental Procedure • Mixed-gender human liver microsomes (Lot #1210347) were purchased from XenoTech. The reaction mixture, minus NADPH, was prepared as described below. The test article was added into the reaction mixture at a final concentration of 1 μM. The control compound, testosterone, was run simultaneously with the test articles in a separate reaction. An aliquot of the reaction mixture (without cofactor) was equilibrated in a shaking water bath at 37° C. for 3 minutes. The reaction was initiated by the addition of the cofactor, and the mixture was incubated in a shaking water bath at 37° C. Aliquots (100 μL) were withdrawn at 0, 10, 20, 30, and 60 minutes. Test article and testosterone samples were immediately combined with 400 μL of ice-cold 50/50 acetonitrile (ACN)/H2O containing 0.1% formic acid and internal standard to terminate the reaction. […] Half-lives and clearance were calculated using GraphPad software, fitting to a single-phase exponential decay equation. […]
Note (a): When the calculated half-life is longer than the duration of the experiment, the half-life is expressed as being greater than the longest incubation time. Note (b): Intrinsic clearance (CLint) was calculated based on CLint=k/P, where k is the elimination constant and P is the protein concentration in the incubation.

[2] = system: hippocampal slices from WT mice perfused with oTau; assay: oTau-induced LTP deficit in hippocampal slices
Text: against tau induced synaptic dysfunction. Oligomeric tau caused a defect of LTP. YF2 was applied to hippocampal slices either alone or concurrently with oligomeric tau. […] FIG. 8 is a graph illustrating that YF2 rescues oTau-induced LTP deficits. LTP was impaired in hippocampal slices from WT mice perfused with oTau. The concurrent treatment with YF2 and oTau reestablished normal LTP. There was no impairment in slices treated with YF2 or vehicle. The horizontal solid bar represents oTau perfusion while the horizontal dashed bar represents drug treatment. The three arrows correspond to the theta-burst stimulation. Two-Way ANOVA Vehicle vs. oTau: F(1, 21)=21.32, p=0.0001; Vehicle vs. YF2: F(1, 21)=0.200, p=0.6593; Vehicle vs. YF2+oTau: F(1, 22)=0.3455, p=0.563; YF2 vs. oTau: F(1, 22)=13.72, p=0.0012; YF2 vs. YF2+oTau: F(1, 23)=0.00043, p=0.984; YF2+oTau vs. oTau: F(1, 23)=31.52, p<0.0001.

[3] = system: mice administered with oTau; assay: Contextual fear memory; type: in vivo; details: YF2 plus oTau vs oTau, 24 hrs after the electric shock
Text: A statistical significant difference is visible when comparing all groups during testing for contextual fear memory at 24 hrs after the electric shock (ANOVA among all groups: F(3, 53)=3.051 p=0.0364).

[4] = system: mice administered with oTau; assay: 2 day radial arm water maze (RAWM), spatial short-term memory; type: in vivo; details: oTau 500 nM, YF2 5 mg/kg
Experimental: Oligomeric tau caused a defect of spatial memory and associative memory. YF2 was injected in mice either alone or concurrently with oligomeric tau. The compound rescued the oligomeric tau induced defect in memory. […] The performance in the RAWM was impaired in mice administered with oTau (500 nM). […] The performance was not impaired when mice were treated with only YF2 or vehicle.

[5] = Lys 18 of histone 3, EC50 for activators

Chain of p300 (Q09472 whole entry, species assumed): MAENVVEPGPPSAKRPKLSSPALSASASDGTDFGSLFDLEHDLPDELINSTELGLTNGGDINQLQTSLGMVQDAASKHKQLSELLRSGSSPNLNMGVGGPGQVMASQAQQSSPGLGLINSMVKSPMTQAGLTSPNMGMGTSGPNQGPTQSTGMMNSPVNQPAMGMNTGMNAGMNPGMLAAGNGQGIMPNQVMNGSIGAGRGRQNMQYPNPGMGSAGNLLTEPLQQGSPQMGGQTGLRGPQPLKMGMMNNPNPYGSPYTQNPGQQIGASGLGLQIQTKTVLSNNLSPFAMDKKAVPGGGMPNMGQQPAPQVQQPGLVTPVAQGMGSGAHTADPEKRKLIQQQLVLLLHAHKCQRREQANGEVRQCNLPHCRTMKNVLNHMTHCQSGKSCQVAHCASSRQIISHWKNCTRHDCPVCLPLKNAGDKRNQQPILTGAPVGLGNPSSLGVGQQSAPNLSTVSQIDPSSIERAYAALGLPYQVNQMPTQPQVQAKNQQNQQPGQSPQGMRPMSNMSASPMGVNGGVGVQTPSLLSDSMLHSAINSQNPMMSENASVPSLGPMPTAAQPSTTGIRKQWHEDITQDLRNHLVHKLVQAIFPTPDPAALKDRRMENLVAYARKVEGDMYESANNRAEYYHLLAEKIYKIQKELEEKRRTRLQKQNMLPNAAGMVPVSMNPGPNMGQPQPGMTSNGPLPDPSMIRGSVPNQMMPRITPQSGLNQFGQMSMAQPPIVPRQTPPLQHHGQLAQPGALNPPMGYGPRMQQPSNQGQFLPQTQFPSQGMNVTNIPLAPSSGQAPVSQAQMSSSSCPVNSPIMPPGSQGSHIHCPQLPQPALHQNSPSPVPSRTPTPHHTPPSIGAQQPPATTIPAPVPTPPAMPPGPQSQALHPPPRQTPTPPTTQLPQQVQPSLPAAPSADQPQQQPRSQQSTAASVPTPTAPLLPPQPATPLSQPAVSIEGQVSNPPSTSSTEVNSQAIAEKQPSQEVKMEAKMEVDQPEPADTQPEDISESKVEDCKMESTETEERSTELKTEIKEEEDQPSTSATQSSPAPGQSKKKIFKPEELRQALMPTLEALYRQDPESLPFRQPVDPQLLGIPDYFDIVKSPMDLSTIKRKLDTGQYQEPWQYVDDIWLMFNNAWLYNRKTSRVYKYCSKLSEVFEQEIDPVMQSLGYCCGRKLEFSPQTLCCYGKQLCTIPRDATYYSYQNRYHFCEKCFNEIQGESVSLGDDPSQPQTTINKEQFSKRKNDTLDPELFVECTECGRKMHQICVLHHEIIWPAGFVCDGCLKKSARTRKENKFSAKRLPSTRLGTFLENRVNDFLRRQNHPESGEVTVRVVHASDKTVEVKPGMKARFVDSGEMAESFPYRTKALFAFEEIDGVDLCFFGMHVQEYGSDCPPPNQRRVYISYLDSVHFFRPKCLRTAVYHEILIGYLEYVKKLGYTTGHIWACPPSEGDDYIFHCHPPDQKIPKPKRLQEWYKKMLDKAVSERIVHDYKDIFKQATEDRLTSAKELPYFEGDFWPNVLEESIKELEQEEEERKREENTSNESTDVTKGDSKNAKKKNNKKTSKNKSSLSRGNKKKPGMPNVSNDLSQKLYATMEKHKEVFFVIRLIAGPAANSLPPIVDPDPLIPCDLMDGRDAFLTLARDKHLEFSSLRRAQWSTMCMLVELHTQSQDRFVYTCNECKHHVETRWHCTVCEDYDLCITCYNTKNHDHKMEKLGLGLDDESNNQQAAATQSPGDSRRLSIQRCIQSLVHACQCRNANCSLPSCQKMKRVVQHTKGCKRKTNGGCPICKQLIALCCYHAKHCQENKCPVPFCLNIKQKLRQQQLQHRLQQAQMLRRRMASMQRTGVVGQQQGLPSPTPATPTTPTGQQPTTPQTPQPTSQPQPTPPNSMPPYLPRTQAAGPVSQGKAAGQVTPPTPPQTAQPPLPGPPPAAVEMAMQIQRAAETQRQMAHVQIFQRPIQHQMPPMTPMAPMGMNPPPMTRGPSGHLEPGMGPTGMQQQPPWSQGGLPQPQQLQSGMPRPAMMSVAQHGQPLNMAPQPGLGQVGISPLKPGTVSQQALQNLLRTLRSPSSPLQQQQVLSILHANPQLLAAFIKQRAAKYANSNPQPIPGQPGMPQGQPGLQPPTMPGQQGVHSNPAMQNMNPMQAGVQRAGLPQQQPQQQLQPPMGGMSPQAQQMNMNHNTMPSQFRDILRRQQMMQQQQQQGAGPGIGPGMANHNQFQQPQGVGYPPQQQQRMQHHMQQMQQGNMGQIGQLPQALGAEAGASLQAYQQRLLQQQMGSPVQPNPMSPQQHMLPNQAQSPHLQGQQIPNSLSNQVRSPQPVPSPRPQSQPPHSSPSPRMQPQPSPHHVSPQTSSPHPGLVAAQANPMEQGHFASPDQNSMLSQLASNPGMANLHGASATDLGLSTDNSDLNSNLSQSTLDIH

In the case of `CCOc1cccc(OCCN2CCOCC2)c1C(C)Nc1ccc(O)c(C(F)(F)F)c1` (centres unmarked) [JF2], the pEC50 (p300; [5]) was 6.86, the “H3-Lys 27 EC50” value (p300; EC50 for activators) was “NO ACTIVITY” and the “H3-Lys 27 IC50” value (p300; IC50 for inhibitors) was “NO ACTIVITY”.

Work on `FC(F)(F)c1cc(N2COc3ccccc3C2)ccc1Cl` [JF17] yielded a pEC50 (p300; [5]) of 6.99.

In the case of `CN(C)CCOc1cccc2c1C(=O)N(c1ccc(Cl)c(C(F)(F)F)c1)C2=O` [JF19], the “H3-Lys 18 EC50” value (p300; [5]) was “NO ACTIVITY”, the “H3-Lys 18 IC50” value (p300; Lys 18 of histone 3, IC50 for inhibitors) was “NO ACTIVITY” and the “H3-Lys 27 EC50” value (p300; EC50 for activators) was “NO ACTIVITY”. The “H3-Lys 27 IC50” value (p300; IC50 for inhibitors) was “NO ACTIVITY”.

Work on `C[C@]12CC[C@H]3[C@@H](CCC4=CC(=O)CC[C@@]43C)[C@@H]1CC[C@@H]2O` [Testosterone, testosterone] yielded a half-life at 1 μM ([1]; pH 7.4, 1 μM, single-phase exponential decay fit) of 40.6 min and a microsomal CLint at 1 μM ([1]; pH 7.4, CLint=k/P) of 34.1 µL/min/mg.

For `CCOc1cccc(OCCN(C)C)c1C(=O)Nc1ccc(Cl)c(C(F)(F)F)c1` [YF2], the “LTP with compound alone” value ([2]; hippocampal slices treated with YF2 alone) was “no impairment”, the “effect on oligomeric tau induced defect in long-term potentiation” value ([2]; hippocampal slices, concurrent treatment with YF2 and oTau) was “rescued the oligomeric tau induced defect in long-term potentiation; also recorded: rescues oligomeric-Tau (oTau)-induced LTP deficits” and the “contextual fear memory (freezing), oTau-induced deficit” value [3] was “rescues oTau-induced deficit in contextual fear memory; also recorded: rescues oTau-induced defects in contextual fear memory”. The “RAWM performance, oTau-induced deficit” value [4] was “rescued the deficit; also recorded: rescues oTau-induced defects”.

Reference: patent publication US20220125748A1, “HISTONE ACETYLTRANSFERASE (HAT) REGULATORS AND USES THEREOF” (The Trustees of Columbia University in the City of New York, priority 2019, published 2022)
